Results published in PMC12028158, “Synthesis and In Vitro Evaluation of the Anticancer Effect of Novel Phosphonium Vindoline Derivatives” (International Journal of Molecular Sciences, 2025).
Where two headings read alike, the source gives them in different places.

Key:
Format in all cases: cell-based
SF-268 = assay: NCI60 one-dose screen; details: Homo sapiens; SF-268, 10 μM, one-dose; read-out: Growth percent
NCI-H23 = assay: NCI60 five-dose screen; details: Homo sapiens; NCI-H23, Non-small Cell Lung Cancer, five-dose; read-out: GI50
COLO 205 = assay: NCI60 five-dose screen; details: Homo sapiens, read-out: GI50
UACC-257 = assay: NCI60 five-dose screen; details: Homo sapiens, read-out: GI50
OVCAR-4 = assay: NCI60 one-dose screen; details: Homo sapiens; OVCAR-4, 10 μM, one-dose; read-out: Growth percent
A498 [1] = assay: NCI60 one-dose screen; details: Homo sapiens; A498, 10 μM, one-dose; read-out: Growth percent
IGROV1 = assay: NCI60 one-dose screen; details: Homo sapiens, IGROV-1; IGROV1, 10 μM, one-dose; read-out: Growth percent
HCT-116 [2] = assay: NCI60 one-dose screen; details: Homo sapiens; HCT-116, 10 μM, one-dose; read-out: Growth percent
K-562 = assay: NCI60 five-dose screen; details: Homo sapiens, K562; K-562, Leukemia, five-dose; read-out: GI50
HCC-2998 = assay: NCI60 one-dose screen; details: Homo sapiens; HCC-2998, 10 μM, one-dose; read-out: Growth percent
[3] = system: 60 human tumor cell lines (NCI60); assay: NCI60 one-dose screen, overall mean; details: one-dose
MDA-MB-468 = assay: NCI60 five-dose screen; details: Homo sapiens, read-out: GI50
LOX IMVI = assay: NCI60 five-dose screen; details: Homo sapiens, Melanoma, five-dose, read-out: GI50
HT29 = assay: NCI60 one-dose screen; details: Homo sapiens, HT-29; HT29, 10 μM, one-dose; read-out: Growth percent
SF-539 = assay: NCI60 one-dose screen; details: Homo sapiens; SF-539, 10 μM, one-dose; read-out: Growth percent
NCI-H522 = assay: NCI60 five-dose screen; details: Homo sapiens; NCI-H522, Non-small Cell Lung Cancer, five-dose; read-out: GI50
SF-295 = assay: NCI60 five-dose screen; details: Homo sapiens; SF-295, CNS Cancer, five-dose; read-out: GI50
Prostate Cancer panel = assay: NCI60 five-dose screen, panel mean; details: Homo sapiens; mean over Prostate Cancer panel; read-out: Mean GI50
CCRF-CEM = assay: NCI60 one-dose screen; details: Homo sapiens, 10 μM, one-dose, read-out: Growth percent
DU-145 = assay: NCI60 five-dose screen; details: Homo sapiens; DU-145, Prostate Cancer, five-dose; read-out: GI50
NCI-H460 = assay: NCI60 five-dose screen; details: Homo sapiens; NCI-H460, Non-small Cell Lung Cancer, five-dose; read-out: GI50
UACC-62 = assay: NCI60 five-dose screen; details: Homo sapiens; UACC-62, Melanoma, five-dose; read-out: GI50
HCT-15 = assay: NCI60 one-dose screen; details: Homo sapiens; HCT-15, 10 μM, one-dose; read-out: Growth percent
SW-620 [4] = assay: NCI60 one-dose screen; details: Homo sapiens; SW-620, 10 μM, one-dose; read-out: Growth percent
HS 578T = assay: NCI60 one-dose screen; details: Homo sapiens; HS 578T, 10 μM, one-dose; read-out: Growth percent
SW-620 [5] = assay: NCI60 five-dose screen; details: Homo sapiens; SW-620, Colon Cancer, five-dose; read-out: GI50
NCI-H322M = assay: NCI60 five-dose screen; details: Homo sapiens, Non-small Cell Lung Cancer, five-dose, read-out: GI50
SK-MEL-28 = assay: NCI60 one-dose screen; details: Homo sapiens; SK-MEL-28, 10 μM, one-dose; read-out: Growth percent
RPMI-8226 = assay: NCI60 one-dose screen; details: Homo sapiens; RPMI-8226, 10 μM, one-dose; read-out: Growth percent
HOP-62 = assay: NCI60 five-dose screen; details: Homo sapiens; HOP-62, Non-small Cell Lung Cancer, five-dose; read-out: GI50
SK-OV-3 = assay: NCI60 five-dose screen; details: Homo sapiens; SK-OV-3, Ovarian Cancer, five-dose; read-out: GI50
SK-MEL-5 = assay: NCI60 one-dose screen; details: Homo sapiens; SK-MEL-5, 10 μM, one-dose; read-out: Growth percent
SNB-75 = assay: NCI60 one-dose screen; details: Homo sapiens; SNB-75, 10 μM, one-dose; read-out: Growth percent
MALME-3M = assay: NCI60 one-dose screen; details: Homo sapiens; MALME-3M, 10 μM, one-dose; read-out: Growth percent
M14 = assay: NCI60 one-dose screen; details: Homo sapiens; M14, 10 μM, one-dose; read-out: Growth percent
A498 [6] = assay: NCI60 five-dose screen; details: Homo sapiens; A498, Renal Cancer, five-dose; read-out: GI50
HCT-116 [7] = assay: NCI60 five-dose screen; details: Homo sapiens; HCT-116, Colon Cancer, five-dose; read-out: GI50
KM12 = assay: NCI60 five-dose screen; details: Homo sapiens, read-out: GI50
NCI/ADR-RES = assay: NCI60 one-dose screen; details: Homo sapiens, 10 μM, one-dose, read-out: Growth percent
OVCAR-3 = assay: NCI60 five-dose screen; details: Homo sapiens; OVCAR-3, Ovarian Cancer, five-dose; read-out: GI50

Compound `CC[C@]12C=CCN3CC[C@@]4(c5ccc(OC)cc5N(C)[C@H]4[C@@](O)(C(=O)OC)[C@@H]1OC(=O)CCC[P+](c1cc(C)c(OC)c(C)c1)(c1cc(C)c(OC)c(C)c1)c1cc(C)c(OC)c(C)c1)[C@@H]32` [9e] has an activity at 10 µM (SF-268) of -97.6%, a GI50 (NCI-H23) of 183 nM and a GI50 (COLO 205; COLO 205, COLO 205, Colon Cancer, five-dose) of 91 nM. It also gave a GI50 (COLO 205; COLO 205, colon cancer COLO-205, text) of less than 100 nM, a GI50 (UACC-257; UACC-257, UACC-257, Melanoma, five-dose) of 38 nM and a GI50 (UACC-257; UACC-257, melanoma UACC-257, text) of less than 100 nM. For the same compound, the activity at 10 µM (OVCAR-4) was -98.7%, the activity at 10 µM (A498 [1]) was -98.9% and the activity at 10 µM (IGROV1) was -99%. For the same compound, the activity at 10 µM (HCT-116 [2]) was -93%, the GI50 (K-562) was 195 nM and the activity at 10 µM (HCC-2998) was -97.9%. The activity at 10 µM ([3]; Homo sapiens, mean over 60 cell lines, 10 μM, read-out: Mean growth percent) was -97.1%, the Mean growth percent ([3]; mean over 60 cell lines, 10 μM) was −97.13% and the “average reduction / average cell death” value ([3]; 10 µM, average over cell lines) was “more than 70%”. The GI50 (MDA-MB-468; MDA-MB-468, MDA-MB-468, Breast Cancer, five-dose) was 27 nM, the GI50 (MDA-MB-468; MDA-MB-468, breast cancer MDA-MB-468, text) was less than 100 nM and the GI50 (LOX IMVI) was 145 nM. The activity at 10 µM (HT29) was -97.5%, the activity at 10 µM (SF-539) was -97.2% and the GI50 (NCI-H522) was 198 nM. It also gave a GI50 (SF-295) of 213 nM, a GI50 (Prostate Cancer panel) of 250 nM and an activity at 10 µM (CCRF-CEM) of -95.7%. It also gave a GI50 (DU-145) of 300 nM, a GI50 (NCI-H460) of 229 nM and a GI50 (UACC-62) of 160 nM. The activity at 10 µM (HCT-15) was -93.9%, the activity at 10 µM (SW-620 [4]) was -95.8% and the activity at 10 µM (HS 578T) was -98.2%. It also gave a GI50 (SW-620 [5]) of 245 nM, a GI50 (NCI-H322M) of 342 nM and an activity at 10 µM (SK-MEL-28) of -98.2%. The activity at 10 µM (RPMI-8226) was -98.3%, the GI50 (HOP-62) was 173 nM and the GI50 (SK-OV-3) was 232 nM. It also gave an activity at 10 µM (SK-MEL-5) of -97.5%, an activity at 10 µM (SNB-75) of -98.9% and an activity at 10 µM (MALME-3M) of -98.4%. It also gave an activity at 10 µM (M14) of -97.3%, a GI50 (A498 [6]) of 314 nM and a GI50 (HCT-116 [7]) of 223 nM. The GI50 (KM12; KM12, KM12, Colon Cancer, five-dose) was 47 nM, the GI50 (KM12; KM12, colon cancer KM12, text) was less than 100 nM and the activity at 10 µM (NCI/ADR-RES) was -87.2%. For the same compound, the GI50 (OVCAR-3) was 147 nM.
